Reference: PubChem BioAssay (NCI)
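Briefly, cells in 96-well plates were exposed to five compound concentrations for 48 h, and endpoints were estimated by linear interpolation. The concentration for full growth arrest is given as TGI.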

Legend:
Assay in all cases: NCI tumour cell line growth inhibition, 48 h
EKVX NSCLC = test system: EKVX NSCLC
RPMI-8226 leukemia = test system: RPMI-8226 leukemia
UO-31 renal = test system: UO-31 renal
786-0 renal = test system: 786-0 renal
OVCAR-3 ovarian = test system: OVCAR-3 ovarian
CCRF-CEM leukemia = test system: CCRF-CEM leukemia
OVCAR-5 ovarian = test system: OVCAR-5 ovarian
HS 578T breast = test system: HS 578T breast
U251 CNS = test system: U251 CNS
SF-268 CNS = test system: SF-268 CNS
UACC-257 melanoma = test system: UACC-257 melanoma
M14 melanoma = test system: M14 melanoma
SN12C renal = test system: SN12C renal
SK-MEL-5 melanoma = test system: SK-MEL-5 melanoma
HCT-116 colon = test system: HCT-116 colon
SNB-75 CNS = test system: SNB-75 CNS
MOLT-4 leukemia = test system: MOLT-4 leukemia
T-47D breast = test system: T-47D breast
MALME-3M melanoma = test system: MALME-3M melanoma
K-562 leukemia = test system: K-562 leukemia
MCF7 breast = test system: MCF7 breast
SNB-19 CNS = test system: SNB-19 CNS
LOX IMVI melanoma = test system: LOX IMVI melanoma
NCI-H226 lung = test system: NCI-H226 lung
NCI/ADR-RES ovarian = test system: NCI/ADR-RES ovarian
CAKI-1 renal = test system: CAKI-1 renal
MDA-MB-435 = test system: MDA-MB-435
IGROV1 ovarian = test system: IGROV1 ovarian
HOP-92 NSCLC = test system: HOP-92 NSCLC
RXF 393 renal = test system: RXF 393 renal
COLO 205 colon = test system: COLO 205 colon
NCI-H23 lung = test system: NCI-H23 lung
HCC-2998 colon = test system: HCC-2998 colon
SF-539 CNS = test system: SF-539 CNS
BT-549 breast = test system: BT-549 breast
TK-10 renal = test system: TK-10 renal
HL-60(TB) leukemia = test system: HL-60(TB) leukemia
NCI-H460 lung = test system: NCI-H460 lung
SF-295 CNS = test system: SF-295 CNS
HCT-15 colon = test system: HCT-15 colon
MDA-MB-231 breast = test system: MDA-MB-231 breast
SK-OV-3 ovarian = test system: SK-OV-3 ovarian
DU-145 prostate = test system: DU-145 prostate
A549 NSCLC = test system: A549 NSCLC
HT29 colon = test system: HT29 colon
ACHN renal = test system: ACHN renal
KM12 colon = test system: KM12 colon
SK-MEL-2 melanoma = test system: SK-MEL-2 melanoma
OVCAR-4 ovarian = test system: OVCAR-4 ovarian
HOP-62 NSCLC = test system: HOP-62 NSCLC
SW-620 colon = test system: SW-620 colon
UACC-62 melanoma = test system: UACC-62 melanoma
PC-3 prostate = test system: PC-3 prostate
OVCAR-8 ovarian = test system: OVCAR-8 ovarian
SK-MEL-28 melanoma = test system: SK-MEL-28 melanoma

Measured: TGI

CCN1C(=O)C(=Cc2ccc(-c3ccccc3)cc2)C(=O)N(CC)C1=S
> 100 µM: EKVX NSCLC | RPMI-8226 leukemia | UO-31 renal | 786-0 renal | OVCAR-3 ovarian | CCRF-CEM leukemia | OVCAR-5 ovarian | HS 578T breast | U251 CNS | SF-268 CNS | UACC-257 melanoma | M14 melanoma | SN12C renal | SK-MEL-5 melanoma | HCT-116 colon | SNB-75 CNS | MOLT-4 leukemia | T-47D breast | MALME-3M melanoma | K-562 leukemia | MCF7 breast | SNB-19 CNS | LOX IMVI melanoma | NCI-H226 lung | NCI/ADR-RES ovarian | CAKI-1 renal | MDA-MB-435 | IGROV1 ovarian | HOP-92 NSCLC | RXF 393 renal | COLO 205 colon | NCI-H23 lung | HCC-2998 colon | SF-539 CNS | BT-549 breast | TK-10 renal | HL-60(TB) leukemia | NCI-H460 lung | SF-295 CNS | HCT-15 colon | MDA-MB-231 breast | SK-OV-3 ovarian | DU-145 prostate | A549 NSCLC | HT29 colon | ACHN renal | KM12 colon | SK-MEL-2 melanoma | OVCAR-4 ovarian | HOP-62 NSCLC | SW-620 colon | UACC-62 melanoma | PC-3 prostate | OVCAR-8 ovarian | SK-MEL-28 melanoma
